Values joined by “and” are separate entries in the source; they are usually repeats but may differ in a detail not shown here. Equal values may be shown once. Toxic doses and inconclusive results are not listed. No stated cut-off is given here; in the data, active means T/C of 150% or more; inactive means T/C below 125%.
System: L1210 leukemia ip in BDF1 mice, survival T/C
Experiment: NCI In Vivo Anticancer Drug Screen. Data for tumor model L1210 Leukemia (intraperitoneal) in B6D2F1 (BDF1) mice
Conditions: endpoint: mean survival time, higher = longer survival
Method in brief: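 Value reflects the ratio of survival in compound-treated mice to survival in vehicle-treated controls, with both groups carrying the same transplanted tumor.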

[1] = dose: 100.0 mg/kg/injection, schedule: Q01DX009 (ip), vehicle: Klucel (hydroxypropylcellulose) (HPC)
[2] = dose: 200.0 mg/kg/injection, schedule: Q01DX009 (ip), vehicle: Klucel (hydroxypropylcellulose) (HPC)
[3] = dose: 400.0 mg/kg/injection, schedule: Q01DX009 (ip), vehicle: Klucel (hydroxypropylcellulose) (HPC)
[4] = dose: 75.0 mg/kg/injection, schedule: Q04DX003 (ip), vehicle: saline
[5] = dose: 150.0 mg/kg/injection, schedule: Q04DX003 (ip), vehicle: saline
[6] = dose: 300.0 mg/kg/injection, schedule: Q04DX003 (ip), vehicle: saline
[7] = dose: 100.0 mg/kg/injection, schedule: Q01DX001 (ip), vehicle: saline
[8] = dose: 200.0 mg/kg/injection, schedule: Q01DX001 (ip), vehicle: saline
[9] = dose: 400.0 mg/kg/injection, schedule: Q01DX001 (ip), vehicle: saline
[10] = dose: 100.0 mg/kg/injection, schedule: Q04DX002 (ip), vehicle: Klucel (hydroxypropylcellulose) (HPC)
[11] = dose: 200.0 mg/kg/injection, schedule: Q04DX002 (ip), vehicle: Klucel (hydroxypropylcellulose) (HPC)
[12] = dose: 400.0 mg/kg/injection, schedule: Q04DX002 (ip), vehicle: Klucel (hydroxypropylcellulose) (HPC)
[13] = dose: 50.0 mg/kg/injection, schedule: Q01DX009 (ip), vehicle: Klucel (hydroxypropylcellulose) (HPC)
[14] = dose: 50.0 mg/kg/injection, schedule: Q01DX009 (ip), vehicle: saline with Tween-80
[15] = dose: 100.0 mg/kg/injection, schedule: Q01DX009 (ip), vehicle: saline with Tween-80
[16] = dose: 200.0 mg/kg/injection, schedule: Q01DX009 (ip), vehicle: saline with Tween-80
[17] = dose: 100.0 mg/kg/injection, schedule: Q04DX003 (ip), vehicle: Klucel (hydroxypropylcellulose) (HPC)
[18] = dose: 100.0 mg/kg/injection, schedule: Q01DX001 (ip), vehicle: other
[19] = dose: 200.0 mg/kg/injection, schedule: Q01DX001 (ip), vehicle: other
[20] = dose: 400.0 mg/kg/injection, schedule: Q01DX001 (ip), vehicle: other

Measured: T/C

COc1ccc(-c2cc(C(=O)O)c3cc4ccccc4cc3n2)cc1Br
inactive: [1] 107 % of control | [2] 93 % of control | [3] 105 % of control

O=C(Nc1ccc(S(=O)(=O)Nc2ccc(N=Nc3ccc(S(=O)(=O)Nc4nccs4)cc3)cc2)cc1)C(SC1=NC=NC2=NC=NC21)SC1=NC=NC2=NC=NC21 (stereo not drawn)
inactive: [4] 100 % of control | [5] 96 % of control | [6] 98 % of control

CCOC(=O)C(Cc1ccccc1)N=NNc1nc[nH]c1C(N)=O (stereo not drawn)
inactive: dose: 375.0 mg/kg/injection, schedule: Q01DX001 (ip), vehicle: carboxymethylcellulose (CMC) 96 % of control | dose: 500.0 mg/kg/injection, schedule: Q01DX001 (ip), vehicle: carboxymethylcellulose (CMC) 106 % of control

OC[P+](CO)(CO)CO
inactive: dose: 25.0 mg/kg/injection, schedule: Q04DX002 (ip), vehicle: saline 113 % of control | dose: 50.0 mg/kg/injection, schedule: Q04DX002 (ip), vehicle: saline 103 % of control | dose: 100.0 mg/kg/injection, schedule: Q04DX002 (ip), vehicle: saline 100 % of control and 109 % of control

C=CCSc1ccccc1Cl
inactive: [7] 100 % of control | [8] 103 % of control | [9] 103 % of control

C#C/C=C/CC1OC(C(Br)CC)CC2OC1CC2Br (stereo not drawn)
inactive: dose: 75.0 mg/kg/injection, schedule: Q01DX001 (ip), vehicle: carboxymethylcellulose (CMC) 94 % of control | dose: 150.0 mg/kg/injection, schedule: Q01DX001 (ip), vehicle: carboxymethylcellulose (CMC) 96 % of control | dose: 300.0 mg/kg/injection, schedule: Q01DX001 (ip), vehicle: carboxymethylcellulose (CMC) 96 % of control

Cc1cc2oc(=O)c(Cl)c(Cl)c2c(C)c1Cl
inactive: dose: 10.0 mg/kg/injection, schedule: Q01DX001 (ip), vehicle: saline 105 % of control | dose: 10.0 mg/kg/injection, schedule: Q01DX009 (ip), vehicle: Klucel (hydroxypropylcellulose) (HPC) 101 % of control | dose: 10.0 mg/kg/injection, schedule: Q04DX003 (ip), vehicle: Klucel (hydroxypropylcellulose) (HPC) 86 % of control | dose: 20.0 mg/kg/injection, schedule: Q01DX001 (ip), vehicle: saline 111 % of control | dose: 20.0 mg/kg/injection, schedule: Q01DX009 (ip), vehicle: Klucel (hydroxypropylcellulose) (HPC) 101 % of control | dose: 20.0 mg/kg/injection, schedule: Q04DX003 (ip), vehicle: Klucel (hydroxypropylcellulose) (HPC) 93 % of control

Cc1cc([N+](=O)[O-])c(NC2CCCCC2)c([N+](=O)[O-])c1
inactive: [10] 100 % of control | [11] 93 % of control | [12] 96 % of control

O=[N+]([O-])c1cccs1
inactive: [13] 97 % of control | [1] 108 % of control | dose: 100.0 mg/kg/injection, schedule: Q04DX003 (ip), vehicle: other 104 % of control | dose: 200.0 mg/kg/injection, schedule: Q04DX003 (ip), vehicle: other 103 % of control

[O-]/[N+](=C\c1ccccc1)c1ccccc1
inactive: dose: 50.0 mg/kg/injection, schedule: Q01DX001 (ip), vehicle: saline 110 % of control | [7] 110 % of control | [8] 108 % of control

COc1ccc(/C=N\NC(=O)CNC(=O)Nc2cccc([N+](=O)[O-])c2)cc1O
inactive: [14] 93 % of control | [15] 100 % of control | [16] 96 % of control

O=P(N=P(c1ccccc1)(c1ccccc1)c1ccccc1)(c1ccccc1)c1ccccc1
inactive: [7] 97 % of control | [8] 97 % of control | [9] 97 % of control

COC(=O)C(C)C(O)c1ccc(C)cc1 (stereo not drawn)
inactive: [14] 93 % of control | [15] 93 % of control | [16] 93 % of control

CCOC(OCC)c1cc(=O)[nH]c(NC(C)=O)n1
inactive: [1] 101 % of control | [2] 101 % of control | [3] 106 % of control

COc1ccc(OC)c(NC(=S)N/N=C(/C)c2cc(Cl)c(C)cc2O)c1
inactive: dose: 12.5 mg/kg/injection, schedule: Q04DX002 (ip), vehicle: Klucel (hydroxypropylcellulose) (HPC) 112 % of control | dose: 25.0 mg/kg/injection, schedule: Q04DX002 (ip), vehicle: Klucel (hydroxypropylcellulose) (HPC) 97 % of control | dose: 50.0 mg/kg/injection, schedule: Q04DX002 (ip), vehicle: Klucel (hydroxypropylcellulose) (HPC) 97 % of control

Oc1ccc(C2(CCl)OCCO2)cc1
inactive: dose: 25.0 mg/kg/injection, schedule: Q01DX001 (ip), vehicle: saline with Tween-80 98 % of control | dose: 50.0 mg/kg/injection, schedule: Q01DX001 (ip), vehicle: saline with Tween-80 104 % of control | dose: 100.0 mg/kg/injection, schedule: Q01DX001 (ip), vehicle: saline with Tween-80 107 % of control

CCOC(=O)C1CN(CCc2ccccc2)CCC1=O (stereo not drawn)
inactive: dose: 75.0 mg/kg/injection, schedule: Q01DX001 (ip), vehicle: saline 101 % of control | [4] 100 % of control | dose: 150.0 mg/kg/injection, schedule: Q01DX001 (ip), vehicle: saline 95 % of control | [5] 100 % of control | dose: 300.0 mg/kg/injection, schedule: Q01DX001 (ip), vehicle: saline 91 % of control | [6] 108 % of control

CCCCC1(C)CCC(=O)O1 (stereo not drawn)
inactive: dose: 66.0 mg/kg/injection, schedule: Q01DX001 (ip), vehicle: Klucel (hydroxypropylcellulose) (HPC) 101 % of control | dose: 100.0 mg/kg/injection, schedule: Q01DX001 (ip), vehicle: Klucel (hydroxypropylcellulose) (HPC) 95 % of control | dose: 150.0 mg/kg/injection, schedule: Q01DX001 (ip), vehicle: Klucel (hydroxypropylcellulose) (HPC) 96 % of control | [8] 113 % of control | [9] 91 % of control

Cn1cc([N+](=O)[O-])cnc1=O
inactive: [17] 100 % of control | dose: 200.0 mg/kg/injection, schedule: Q04DX003 (ip), vehicle: Klucel (hydroxypropylcellulose) (HPC) 102 % of control | dose: 400.0 mg/kg/injection, schedule: Q04DX003 (ip), vehicle: Klucel (hydroxypropylcellulose) (HPC) 102 % of control

CCOC(=O)n1cnc2c(Cl)ncnc21
inactive: [18] 109 % of control | [19] 102 % of control | [20] 110 % of control

Ic1ccc(NC2=NCCN2)c2ccccc12
inactive: dose: 25.0 mg/kg/injection, schedule: Q04DX003 (ip), vehicle: Klucel (hydroxypropylcellulose) (HPC) 111 % of control | dose: 50.0 mg/kg/injection, schedule: Q04DX003 (ip), vehicle: Klucel (hydroxypropylcellulose) (HPC) 100 % of control | [17] 93 % of control and 91 % of control

CC1(C)OC2C(CNS(C)(=O)=O)OC(n3cnc4c(N)ncnc43)C2O1 (stereo not drawn)
inactive: [7] 102 % of control | [8] 98 % of control | [9] 101 % of control

O=[N+]([O-])c1ccc(CCc2ccc([N+](=O)[O-])cc2)cc1
inactive: dose: 50.0 mg/kg/injection, schedule: Q01DX001 (ip), vehicle: other 91 % of control | [18] 95 % of control | [19] 97 % of control | [20] 95 % of control

COc1ccc(-n2cnc3c(=O)[nH]c(N)nc32)cc1
inactive: [8] 92 % of control

CCOc1cc(OCC)c(/C=C/[N+](=O)[O-])c(OCC)c1
inactive: [10] 87 % of control | [11] 97 % of control | [12] 100 % of control

Cc1ccc(S(=O)(=O)NC(Cc2ccccc2)C(=O)CCl)cc1 (stereo not drawn)
inactive: dose: 100.0 mg/kg/injection, schedule: Q04DX003 (ip), vehicle: saline with Tween-80 92 % of control | dose: 200.0 mg/kg/injection, schedule: Q04DX003 (ip), vehicle: saline with Tween-80 92 % of control

CCOC(=O)c1cnc2c(ccc3cc(OC)ccc32)c1Cl
inactive: [13] 101 % of control | [1] 97 % of control | [2] 101 % of control

C/C(CC(c1ccccc1)N1CCc2ccccc2C1)=N/O (stereo not drawn)
inactive: dose: 100.0 mg/kg/injection, schedule: Q01DX009 (ip), vehicle: saline sonified 94 % of control | dose: 100.0 mg/kg/injection, schedule: Q04DX003 (ip), vehicle: saline 105 % of control | dose: 200.0 mg/kg/injection, schedule: Q01DX009 (ip), vehicle: saline sonified 94 % of control | dose: 200.0 mg/kg/injection, schedule: Q04DX003 (ip), vehicle: saline 104 % of control | dose: 400.0 mg/kg/injection, schedule: Q01DX009 (ip), vehicle: saline sonified 90 % of control | dose: 400.0 mg/kg/injection, schedule: Q04DX003 (ip), vehicle: saline 112 % of control

Source: PubChem BioAssay AID248 (DTP/NCI, 2004)
